Values quoted from earlier work in publication PMC12465416 (BMC Infectious Diseases, 2025).
Structures can show the parent of a compound that is named as a salt. Where a SMILES comes first, the peptide text is derived from it. Bridges are numbered along the chain shown (N, C = ends). [ ]: non-standard residue; d: D form. The star is where a group is joined. X1 = CC[C@H](C)CCCCC(=O)*; Dab = NCC[C@H](N)C(=O)O

Details: IV PMB alone to treat CRGNB pneumonia

For `CC[C@H](C)CCCCC(=O)N[C@@H](CCN)C(=O)N[C@H](C(=O)N[C@@H](CCN)C(=O)N[C@H]1CCNC(=O)[C@H]([C@@H](C)O)NC(=O)[C@H](CCN)NC(=O)[C@H](CCN)NC(=O)[C@H](CC(C)C)NC(=O)[C@@H](Cc2ccccc2)NC(=O)[C@H](CCN)NC1=O)[C@@H](C)O` [PMB, polymyxin B sulfate] (X1-[Dab]T[Dab][Dab][Dab][dF]L[Dab][Dab]T; lactam 4-C), which “drug concentrations in ELF compared with those in plasma” value is on record?
Its value is “significantly lower”.
